In patent US11548888B2, “KRas G12C inhibitors” (Mirati Therapeutics, Inc., priority 2019, dated 2023):

Biological target: T1, KRas G12C (Homo sapiens, UniProt P01116, G12C)
T1 construct: NCI-H358 cells (ATCC CRL-5807) express KRas G12C
Experiment: Inhibition of KRas G12C-dependent cell growth: Phospho-ERK in NCI-H358 cells
Assay type: cell-based
Conditions: NCI-H358 cells expressing KRas G12C; Phospho-ERK (Thr202/Tyr204) normalized to GAPDH; 3 hours compound; 4 parameter fit
Procedure, shortened: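 NCI-H358 cells (KRas G12C) exposed to compounds for 3 h, 0.5% DMSO final. Fixed cells immunostained for pERK(Thr202/Tyr204) and GAPDH with infrared secondary antibodies. pERK normalized to GAPDH, expressed as percent of DMSO control; IC50 from 4-parameter dose-response fit.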

T1 sequence (P01116 1-188 isoform P01116-2 G12C): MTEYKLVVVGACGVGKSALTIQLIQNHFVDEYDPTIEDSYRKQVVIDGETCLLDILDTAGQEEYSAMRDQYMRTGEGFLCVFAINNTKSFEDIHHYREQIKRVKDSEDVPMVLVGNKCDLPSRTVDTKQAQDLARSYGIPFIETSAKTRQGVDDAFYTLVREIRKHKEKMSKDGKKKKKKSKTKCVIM

Structure (SMILES)	IC50 [µM]
COC/C=C/C(=O)N1CCN(c2nc(OC[C@@H]3C[C@@H](OC)CN3C)nc3c(F)c(-c4cccc5cccc(C)c45)ncc23)C[C@@H]1CC#N [Example 57, 2-[(2S)-4-[8-fluoro-2-[[(2S,4R)-4-methoxy-1-methyl-pyrrolidin-2-yl]methoxy]-7-(8-methyl-1-naphthyl)pyrido[4,3-d]pyrimidin-4-yl]-1-[(E)-4-methoxybut-2-enoyl]piperazin-2-yl]acetonitrile]	0.058
C=C(F)C(=O)N1CCN(c2nc(OC[C@@H]3CCCN3C)nc3c(C#N)c(-c4cccc5cccc(C)c45)ncc23)C[C@@H]1CC#N [Example 58, 4-[(3S)-3-(cyanomethyl)-4-(2-fluoroprop-2-enoyl)piperazin-1-yl]-7-(8-methyl-1-naphthyl)-2-[[(2S)-1-methylpyrrolidin-2-yl]methoxy]pyrido[4,3-d]pyrimidine-8-carbonitrile]	0.33
C=C(F)C(=O)N1CCN(c2nc(OCC3CCN3C(C)(C)C)nc3c(F)c(-c4cccc5cccc(Cl)c45)ncc23)C[C@@H]1CC#N (stereo partly drawn) [Example 59, 2-[(2S)-4-[2-[(1-tert-butylazetidin-2-yl)methoxy]-7-(8-chloro-1-naphthyl)-8-fluoro-pyrido[4,3-d]pyrimidin-4-yl]-1-(2-fluoroprop-2-enoyl)piperazin-2-yl]acetonitrile]	0.06
C=CC(=O)N1CCN(c2nc(OC[C@@H]3CCCN3C)nc3c(F)c(-c4ccccc4F)ncc23)C[C@@H]1CC#N [Example 60, 2-[(2S)-4-[8-fluoro-7-(2-fluorophenyl)-2-[[(2S)-1-methylpyrrolidin-2-yl]methoxy]pyrido[4,3-d]pyrimidin-4-yl]-1-prop-2-enoyl-piperazin-2-yl]acetonitrile]	0.127
COC/C=C/C(=O)N1CCN(c2nc(OC[C@@H]3CCCN3C)nc3c(F)c(-c4cccc5cccc(C)c45)ncc23)C[C@@H]1CC#N [Example 61, 2-[(2S)-4-[8-fluoro-7-(8-methyl-1-naphthyl)-2-[[(2S)-1-methylpyrrolidin-2-yl]methoxy]pyrido[4,3-d]pyrimidin-4-yl]-1-[(E)-4-methoxybut-2-enoyl]piperazin-2-yl]acetonitrile]	0.07
COC/C=C/C(=O)N1CCN(c2nc(OC[C@@H]3C[C@@H](OC)CN3C)nc3c(F)c(-c4cccc5cccc(Cl)c45)ncc23)C[C@@H]1CC#N [Example 62, 2-((S)-4-(7-(8-chloronaphthalen-1-yl)-8-fluoro-2-(((2S,4R)-4-methoxy-1-methylpyrrolidin-2-yl)methoxy)pyrido[4,3-d]pyrimidin-4-yl)-1-((E)-4-methoxybut-2-enoyl)piperazin-2-yl)acetonitrile]	0.018
C=C(F)C(=O)N1CCN(c2nc(OC[C@@H]3CCCN3C)nc3c(OCC(F)(F)F)c(-c4cccc5cccc(C)c45)ncc23)C[C@@H]1CC#N [Example 63, 2-((S)-1-(2-fluoroacryloyl)-4-(7-(8-methylnaphthalen-1-yl)-2-(((S)-1-methylpyrrolidin-2-yl)methoxy)-8-(2,2,2-trifluoroethoxy)pyrido[4,3-d]pyrimidin-4-yl)piperazin-2-yl)acetonitrile]	2.85
C=C(F)C(=O)N1CCN(c2nc(OC3CCN(C4CCOCC4)CC3)nc3c(F)c(-c4cccc5cccc(Cl)c45)ncc23)C[C@@H]1CC#N [Example 64]	0.376
C=C(F)C(=O)N1CCN(c2nc(OCC3CN(C)CCO3)nc3c(F)c(-c4cccc5cccc(Cl)c45)ncc23)C[C@@H]1CC#N (stereo partly drawn) [Example 65]	0.036
CC(C)(C)N1CCC1COc1nc(N2CCN(C(=O)/C=C/CF)[C@@H](CC#N)C2)c2cnc(-c3cccc4cccc(Cl)c34)c(F)c2n1 (stereo partly drawn) [Example 66]	0.012
C=C(F)C(=O)N1CCN(c2nc(OCCN(C)C)nc3c(F)c(-c4cccc5cccc(Cl)c45)ncc23)C[C@@H]1CC#N [Example 68]	0.086
C=CC(=O)N1CCN(c2nc(OC[C@@H]3CCCN3C)nc3c(F)c(-c4cccc5cccc(Cl)c45)ncc23)[C@@H](C)C1 [Example 69]	0.058
C=C(F)C(=O)N1CCN(c2nc(OC3CCN(C)CC3)nc3c(F)c(-c4cccc5cccc(Cl)c45)ncc23)C[C@@H]1CC#N [Example 70]	0.456
C=C(F)C(=O)N1CCN(c2nc(OCC3CCN3C)nc3c(F)c(-c4cccc5cccc(Cl)c45)ncc23)C[C@@H]1CC#N (stereo partly drawn) [Example 71]	0.013
C=C(F)C(=O)N1CCN(c2nc(O[C@H](C)CN(C)C)nc3c(F)c(-c4cccc5cccc(Cl)c45)ncc23)C[C@@H]1CC#N [Example 73]	0.593
C=CC(=O)N1CC2(CCN(c3nc(OC4CCN(C5CCOCC5)CC4)nc4c(F)c(-c5cccc6cccc(Cl)c56)ncc34)CC2)C1 [Example 74]	1.35
C=C(F)C(=O)N1CCN(c2nc(OC[C@@H]3CCCN3C)nc3c(F)c(-c4cccc5cccc(Cl)c45)ncc23)[C@@H](C)C1 [Example 75]	1.19
C=C(F)C(=O)N1CCN(c2nc(OC[C@@H]3CCCN3C)nc3c(F)c(-c4cccc5cccc(Cl)c45)ncc23)[C@H](C)C1 [Example 76]	3
C=C(F)C(=O)N1CCN(c2nc(OCC34CCCN3CCC4)nc3c(F)c(-c4cccc5cccc(Cl)c45)ncc23)C[C@@H]1CC#N [Example 77]	0.002
COC/C=C/C(=O)N1CCN(c2nc(OC[C@@H]3CCCN3C)nc3c(F)c(-c4cccc5cccc(Cl)c45)ncc23)C[C@@H]1CC#N [Example 78]	0.013
C=CC(=O)N1CCN(c2nc(OC[C@@H]3CCCN3C)nc3c(F)c(-c4c(C)ccc5[nH]ncc45)ncc23)[C@@H](C)C1 [Example 79]	0.675
C=CC(=O)N1CCN(c2nc(OC[C@@H]3CCCN3C)nc3c(F)c(-c4c(C)ccc5[nH]ncc45)ncc23)CC1 [Example 80]	2.52
C=C(F)C(=O)N1CCN(c2nc(OC[C@@H]3CCCN3C)nc3c(F)c(-c4c(O)cccc4F)ncc23)C[C@@H]1CC#N [Example 81]	1.1
C=C(F)C(=O)N1CCN(c2nc(OCCc3cccc(N)c3)nc3c(F)c(-c4cccc5cccc(Cl)c45)ncc23)C[C@@H]1CC#N [Example 82]	0.618

Structure (SMILES)	IC50 [µM]
C=CC(=O)N1CC2(CCN(c3nc(OC[C@@H]4CCCN4C)nc4c(F)c(-c5c(C)ccc6[nH]ncc56)ncc34)CC2)C1 [Example 83]	3.5
C=C(F)C(=O)N1CCN(c2nc(OC[C@@H]3CCCN3C)nc3c(F)c(-c4cccc5cnn(C)c45)ncc23)C[C@@H]1CC#N [Example 84]	0.765
C=CC(=O)N1CC2(CCN(c3nc(OC[C@@H]4CCCN4C)nc4c(F)c(-c5cccc6cccc(Cl)c56)ncc34)CC2)C1 [Example 85]	0.519
C=C(F)C(=O)N1CCN(c2nc(OC[C@@H]3CCCN3C)nc3c(F)c(-c4cccc5ccc(F)c(C)c45)ncc23)C[C@@H]1CC#N [Example 86]	0.014
C=C(F)C(=O)N1CCN(c2nc(OC[C@@H]3CCCN3C)nc3c(F)c(-c4ccccc4F)ncc23)C[C@@H]1CC#N [Example 87]	4.38
COC/C=C/C(=O)N1CCN(c2nc(OC[C@@H]3CCCN3C)nc3c(F)c(-c4cncc5cccc(Cl)c45)ncc23)C[C@@H]1CC#N [Example 88]	0.077
CN1CCC[C@H]1COc1nc(N2CCN(C(=O)/C=C/CF)[C@@H](CC#N)C2)c2cnc(-c3cncc4cccc(Cl)c34)c(F)c2n1 [Example 90]	0.026
C=C(F)C(=O)N1CCN(c2nc(N3CC(N(C)C)C3)nc3c(F)c(-c4cccc5cccc(Cl)c45)ncc23)C[C@@H]1CC#N [Example 91]	0.029
C=C(F)C(=O)N1CCN(c2nc(OC[C@@H]3CCCN3C)nc3c(F)c(-c4cccc5ccc(F)c(Cl)c45)ncc23)C[C@@H]1CC#N [Example 92]	0.011
C=CC(=O)N1CCN(c2nc(OC[C@@H]3CCCN3C)nc3c(F)c(-c4cncc5cccc(Cl)c45)ncc23)CC1 [Example 93]	0.366
C=C(F)C(=O)N1CCN(c2nc(OC[C@@H]3CCCN3C)nc3c(F)c(-c4cc(O)cc5ccccc45)ncc23)C[C@@H]1CC#N [Example 95]	0.014
C=CC(=O)N1CCN(c2nc(OC[C@@H]3CCCN3C)nc3c(F)c(-c4cncc5cccc(Cl)c45)ncc23)[C@@H](C)C1 [Example 96]	0.2
C=C(F)C(=O)N1CCN(c2nc(NC3CCN(C4CC4)CC3)nc3c(F)c(-c4cccc5cccc(Cl)c45)ncc23)C[C@@H]1CC#N [Example 97]	2.52
C=CC(=O)N1CC2CC1CN2c1nc(OC[C@@H]2CCCN2C)nc2c(F)c(-c3cncc4cccc(Cl)c34)ncc12 (stereo partly drawn) [Example 98]	10
C=C(F)C(=O)N1CCN(c2nc(OC[C@@H]3CCCN3C)nc3c(F)c(-c4c(C)ccc5cnn(C)c45)ncc23)C[C@@H]1CC#N [Example 99]	0.444
C=CC(=O)N1CCN(c2nc(OC[C@@H]3CCCN3C)nc3c(F)c(-c4ccccc4F)ncc23)[C@@H](C)C1 [Example 100]	10
C=C(F)C(=O)N1CCN(c2nc(OCC34CCCN3CCC4)nc3c(F)c(-c4cccc(F)c4C(F)(F)F)ncc23)C[C@@H]1CC#N [Example 101]	0.043
C=CC(=O)N1CCN(c2nc(OCC34CCCN3CCC4)nc3c(F)c(-c4cccc5ccc(F)c(Cl)c45)ncc23)CC1 [Example 102]	0.012
C=CC(=O)N1CCN(c2nc(OC[C@@H]3CCCN3C)nc3c(F)c(-c4nc(N)ccc4Cl)ncc23)CC1 [Example 103]	10
C=C(F)C(=O)N1CCN(c2nc(OCCC(F)(F)F)nc3c(F)c(-c4cccc5ccc(F)c(Cl)c45)ncc23)C[C@@H]1CC#N [Example 104]	0.699
C=CC(=O)N1CC2CN(c3nc(OC[C@@H]4CCCN4C)nc4c(F)c(-c5cncc6cccc(Cl)c56)ncc34)CC2C1 (stereo partly drawn) [Example 105]	10
C=C(F)C(=O)N1CCN(c2ncnc3c(F)c(-c4cccc5cccc(Cl)c45)ncc23)C[C@@H]1CC#N [Example 106]	1.54
C=C(F)C(=O)N1CCN(c2nc(OC[C@@H]3CCCN3C)nc3c(F)c(-c4nc(N)cc5ccccc45)ncc23)C[C@@H]1CC#N [Example 107]	0.156
C=CC(=O)N1CCN(c2ncnc3c(F)c(-c4cccc5cccc(Cl)c45)ncc23)C[C@@H]1CC#N [Example 108]	0.037
